Assay results published in patent US9675627B2, “Dosing regimens for treating and/or preventing cerebral amyloidoses” (Amicus Therapeutics, Inc., priority 2014, dated 2017).

Legend:
[1] = tested on: SH-SY5Y cells; test: Cell viability, tetrazolium-formazan conversion; type: cell-based, human; conditions: concentrations as high as 1 mM, up to 120 hours
Method: (§1) Viability of human fibroblast (CRL2076) and human neuroblastoma (SH-SY5Y) cells was tested after prolonged exposure to varying concentrations of AdDNJ. In a 96-well plate, fibroblasts were incubated in complete media containing increasing concentrations of AdDNJ up to 1 mM for either 72 or 120 hours at 37° C. in a humidified 8% CO2 incubator. Living cells were quantified using a tetrazoliuim-formazan conversion method according to the manufacturer's instructions (Promega Non-Radioactive 96-well Titer assay, TB112). SH-SY5Y cells were tested in the same manner as fibroblasts but plated in collagen-coated plates (Nunc #152036). After 24 hour, 48 hour and 120 hour exposure to AdDNJ, living SH-SY5Y cells were quantified as described above. All dosing concentrations were done in triplicate.

[2] = tested on: Dutch APP^E693Q transgenic mice; test: Contextual and cued fear conditioning; type: in vivo; conditions: 3-month course, 3-100 mg/kg
Method: The generation and characterization of Dutch APPE693Q mice transgenic mice is described in Gandy, S., et al. Days to criterion as an indicator of toxicity associated with human Alzheimer amyloid-beta oligomers. Annals of neurology 68, 220-230 (2010). 3-month-old male Dutch APP^E693Q mice transgenic mice were orally gavaged 5 days/week with either vehicle (water) (n=15) or 3, 10, 30 or 100 mg/kg AdDNJ for 3 months (n=13). All animal studies were approved and conducted in accordance with the Institutional Animal Care and Usage Committee. Mice were kept in a pathogen-free environment, on a 12-hour light/dark cycle and given ad libitum access to food and water. At 6 month of age treatment groups, and a 3-month-old untreated baseline group (n=15), were cognitively assessed in the NOR, EPM and FC tests. 48 hours following the final dose mice were perfused with ice-cold 1×PBS. The brain was removed and dissected into two hemispheres. […]
Contextual and cued fear conditioning was assessed using the ANY-Maze fear conditioning system (Stoelting Co., Wood Dale, Ill., USA) as previously described in Steele, J. W., et al. Early fear memory defects are associated with altered synaptic plasticity and molecular architecture in the TgCRND8 Alzheimer's disease mouse model. […]

[3] = molecular target: T1, β-glucocerebrosidase (GCase) (Homo sapiens, UniProt P04062); test: Selectivity: glucocerebrosidase activity in fibroblast lysate; type: biochemical; conditions: 10 μM, the highest concentration tested
T1 construct: wild-type fibroblast (CRL2076) pellets (˜2.5e6 cells/pellet) were lysed; host or cells: wild-type fibroblasts CRL2076, lysate
T1 sequence (P04062 40-536): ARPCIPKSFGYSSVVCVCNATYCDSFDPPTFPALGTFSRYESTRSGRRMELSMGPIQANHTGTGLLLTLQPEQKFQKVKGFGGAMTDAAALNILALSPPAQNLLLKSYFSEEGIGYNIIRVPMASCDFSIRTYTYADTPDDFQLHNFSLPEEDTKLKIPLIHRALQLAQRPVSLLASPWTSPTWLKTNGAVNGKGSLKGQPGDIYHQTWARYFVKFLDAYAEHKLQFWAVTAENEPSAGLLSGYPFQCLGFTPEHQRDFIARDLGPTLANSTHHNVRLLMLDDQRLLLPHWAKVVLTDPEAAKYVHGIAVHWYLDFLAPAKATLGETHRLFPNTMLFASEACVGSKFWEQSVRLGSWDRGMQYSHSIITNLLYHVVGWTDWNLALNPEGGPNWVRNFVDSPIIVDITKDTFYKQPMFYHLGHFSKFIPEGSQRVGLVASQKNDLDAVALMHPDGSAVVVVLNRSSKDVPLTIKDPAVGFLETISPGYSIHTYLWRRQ
Excerpt: Enzymatic activity measurements were done in duplicate.

[4] = tested on: GM1, GM2, and GM3 ganglioside levels; test: TLC analysis of whole brain ganglioside levels; type: in vivo, Dutch APP^E693Q transgenic mice; conditions: 3 months of 100 mg/kg
Method: The generation and characterization of Dutch APPE693Q mice transgenic mice is described in Gandy, S., et al. Days to criterion as an indicator of toxicity associated with human Alzheimer amyloid-beta oligomers. Annals of neurology 68, 220-230 (2010). 3-month-old male Dutch APP^E693Q mice transgenic mice were orally gavaged 5 days/week with either vehicle (water) (n=15) or 3, 10, 30 or 100 mg/kg AdDNJ for 3 months (n=13). All animal studies were approved and conducted in accordance with the Institutional Animal Care and Usage Committee. Mice were kept in a pathogen-free environment, on a 12-hour light/dark cycle and given ad libitum access to food and water. At 6 month of age treatment groups, and a 3-month-old untreated baseline group (n=15), were cognitively assessed in the NOR, EPM and FC tests. 48 hours following the final dose mice were perfused with ice-cold 1×PBS. The brain was removed and dissected into two hemispheres. One half was snap-frozen on dry ice and stored at −80° C. for biochemistry; the other half was post-fixed in 4% paraformaldehyde then sagittally sectioned on a vibratome into 30 μm sections and stored at 4° C. in storage buffer until histological analyses.

[5] = tested on: human skin fibroblasts; test: Cell viability, tetrazolium-formazan conversion; type: cell-based; conditions: concentrations as high as 1 mM, up to 120 hours
Method: as §1

SMILES: CC(=O)NC1CNC(CO)[C@@H](O)C1O (some centres unmarked) [AdDNJ, 2-acetamido-1,2-dideoxynojirimycin]
- effect on cell viability [1]: little or no effect on cell viability
- contextual or cued fear conditioning [2]: no effect
- inhibition of β-glucocerebrosidase (GCase) [3]: did not inhibit
- ganglioside levels in whole brain extracts (TLC) [4]: did not reveal any changes in ganglioside levels
- effect on cell viability [5]: little or no effect on cell viability
